The values that follow are results of earlier work, collected in patent publication US6689588B1, “Garlic alliinase covalently bound to carrier for continuous production of allician” (Yeda Research and Development Co. Ltd., priority 1996, dated 2004).

The test system of one series is bacteria, fungi, amebae. As to conditions: Cavallito et al., 1944; Barone and Tansey, 1977; Mirelman et al., 1987.
The conditions of series [1]: Cavallito et al., 1944.

On to `C=CCS[S+]([O-])CC=C` (centres unmarked) [allicin, thio-2-propene-1-sulfinic acid S-allyl ester], for which the antimicrobial activity result in the series on bacteria, fungi, amebae was “antibacterial, antifungal and antiamebic activity”. The chemical stability result in series [1] is “chemically unstable”.
